Data published in patent US6762227B1, “Inhibition of marine biofouling of surfaces” (I-Tech AB, priority 1999, dated 2004).
Like-named read-outs stand apart in the source and are kept apart here.

Tests used:
[1] = system: Cyprid larvae from Balanus improvisus
Procedure: Cyprid larvae from Balanus improvisus were transferred to Petri dishes containing seawater from the Swedish west coast and medetomidine in various concentrations (0.1 nM, 1 nM, 10 nM, 100 nM and 1 μM). In addition, for control purposes, cyprid larvae were transferred to a Petri dish containing seawater only. After 11 days the cyprids were counted and classified as either 1) settled (established) on the surface of the Petri dish, 2) swimming, i.e. living, not established, or 3) dead. The results in the table are expressed in percentage of the total number of organisms in each group (=n).
This example corresponds to Example 1 with the exception that medetomidine was replaced by clonidine in the concentrations defined in Table 2 below.

cyprid larvae [2] = conditions: for Dead / Settled / Swimming: cleaned, reading after 7 days
Procedure: Petri dishes of hydrophilic polystyrene were filled with a solution of medetomidine in varying concentrations (0 ng/ml 10 ng/ml, 1 μg/ml and 10 μg/ml). […] After a 24 hour incubation period in room temperature the dishes were cleaned thoroughly with seawater. The dishes were then incubated with cyprid larvae in amounts of approximately 20 larvae/dish. Readings were taken under microscope after 7 days, and the larvae were classified as either settled, free-swimming or dead.

cyprid larvae [3] = conditions: cleaned, as Example 3
Procedure: Petri dishes of hydrophilic polystyrene were filled with a solution of medetomidine in varying concentrations (0 ng/ml 10 ng/ml, 1 μg/ml and 10 μg/ml). Like in Example 1, one Petri dish with no medetomidine was used as control. After a 24 hour incubation period in room temperature the dishes were cleaned thoroughly with seawater. The dishes were then incubated with cyprid larvae in amounts of approximately 20 larvae/dish. Readings were taken under microscope after 7 days, and the larvae were classified as either settled, free-swimming or dead.
Example 3 was repeated, with the difference that Petri dishes of hydrophobic polystyrene were used instead of hydrophilic dishes.

[4] = system: acorn barnacles (Balanus improvisus); conditions: for Number of Balanus improvisus/10 cm^2: acrylate-based paint with 0.02% by weight medetomidine
Procedure: Medetomidine was added to an acrylate-based paint formula to a concentration of 0.02% by weight (or 170 μg/ml). The paint was then applied on 10 test surfaces dimensioned 10×10 cm^2. The surfaces were allowed to dry at room temperature and were then mounted on racks, which were placed at a depth of about one meter in a bay in the sea offshore from Strömstad, Sweden, and were allowed to remain there during August and September of 1999. After 2, 4 and 8 weeks, respectively, the test surfaces were removed from the sea and the number of acorn barnacles (Balanus improvisus) were counted.

[5] = system: tube building polychaetes (Hydroides elegans); conditions: for Dead / Settled / Swimming: incubated two days
Procedure: The polychaete larvae were incubated for two days in Petri dishes containing sea water and were then classified as either settled, free swimming or dead, like in Example 1. The water originated from the coast outside Sydney, Australia, and the experiment was carried out in May 1999.

[6] = clonidine 0.027 ng/ml, as Example 1
[7] = clonidine 0.27 ng/ml, as Example 1
[8] = clonidine 2.7 ng/ml, as Example 1
[9] = clonidine 27 ng/ml, as Example 1
[10] = clonidine 270 ng/ml, as Example 1
[11] = medetomidine 0.1 nM, after 11 days, % of total organisms
[12] = medetomidine 1 nM, after 11 days, % of total organisms
[13] = medetomidine 10 nM, after 11 days, % of total organisms
[14] = medetomidine 100 nM, after 11 days, % of total organisms
[15] = medetomidine 1000 nM, after 11 days, % of total organisms
[16] = hydrophilic polystyrene dish pre-incubated 24 h with medetomidine 1 ng/ml
[17] = hydrophilic polystyrene dish pre-incubated 24 h with medetomidine 10 ng/ml
[18] = hydrophilic polystyrene dish pre-incubated 24 h with medetomidine 1000 ng/ml
[19] = hydrophilic polystyrene dish pre-incubated 24 h with medetomidine 10000 ng/ml
[20] = hydrophobic polystyrene dish pre-incubated with medetomidine 1 ng/ml
[21] = hydrophobic polystyrene dish pre-incubated with medetomidine 10 ng/ml
[22] = hydrophobic polystyrene dish pre-incubated with medetomidine 1000 ng/ml
[23] = hydrophobic polystyrene dish pre-incubated with medetomidine 10000 ng/ml

Clc1cccc(Cl)c1NC1=NCCN1 [clonidine, 2-(2,6-di-chloro-anilino)-2-imidazoline]
Dead ([1]; Balanus improvisus, in vivo, 11 days, 0.027 ng/ml): 0%
Dead ([1]; Balanus improvisus, in vivo, 11 days, 0.27 ng/ml): 0%
Dead ([1]; Balanus improvisus, in vivo, 11 days, 2.7 ng/ml): 1.7%
Dead ([1]; Balanus improvisus, in vivo, 11 days, 27 ng/ml): 1.5%
Dead ([1]; Balanus improvisus, in vivo, 11 days, 270 ng/ml): 8.3%
Settled [1, 6]: 36.7%
Swimming [1, 6]: 65.7%
Settled [1, 7]: 22.3%
Swimming [1, 7]: 77.7%
Settled [1, 8]: 1.8%
Swimming [1, 8]: 96.5%
Settled [1, 9]: 0%
Swimming [1, 9]: 98.5%
Settled [1, 10]: 0%
Swimming [1, 10]: 91.7%

Cc1cccc(C(C)c2cnc[nH]2)c1C (racemic) [medetomidine, (±)-4-[1-(2,3-dimethylphenyl)-ethyl]-1H-imidazole-mono-hydrogen chloride]
Dead [1, 11]: 0%
Settled [1, 11]: 52%
Swimming [1, 11]: 48%
Dead [1, 12]: 0%
Settled [1, 12]: 1.5%
Swimming [1, 12]: 98%
Dead [1, 13]: 0%
Settled [1, 13]: 0%
Swimming [1, 13]: 100%
Dead [1, 14]: 0%
Settled [1, 14]: 0%
Swimming [1, 14]: 100%
Dead [1, 15]: 0%
Settled [1, 15]: 0%
Swimming [1, 15]: 100%
number of established larvae ([1]; upon increased concentration of medetomidine (0.1 nM to 1 μM)): decreased upon increased concentration
number of dead cyprids ([1]; upon increased contents of medetomidine (0.1 nM to 1 μM)): did not increase
number of settled acorn barnacles (cyprid larvae [2]; also at very low medetomidine incubation concentrations): significant reduction
Dead (cyprid larvae [2]; [16]): 0%
Settled (cyprid larvae [2]; [16]): 6.2%
Swimming (cyprid larvae [2]; [16]): 93.8%
Dead (cyprid larvae [2]; [17]): 0%
Settled (cyprid larvae [2]; [17]): 0%
Swimming (cyprid larvae [2]; [17]): 100%
Dead (cyprid larvae [2]; [18]): 0%
Settled (cyprid larvae [2]; [18]): 0%
Swimming (cyprid larvae [2]; [18]): 100%
Dead (cyprid larvae [2]; [19]): 0%
Settled (cyprid larvae [2]; [19]): 0%
Swimming (cyprid larvae [2]; [19]): 100%
Dead (cyprid larvae [3]; [20]): 0%
Settled (cyprid larvae [3]; [20]): 63.1%
Swimming (cyprid larvae [3]; [20]): 36.9%
Dead (cyprid larvae [3]; [21]): 2.1%
Settled (cyprid larvae [3]; [21]): 33.3%
Swimming (cyprid larvae [3]; [21]): 65%
Dead (cyprid larvae [3]; [22]): 0%
Settled (cyprid larvae [3]; [22]): 0%
Swimming (cyprid larvae [3]; [22]): 100%
Dead (cyprid larvae [3]; [23]): 2.1%
Settled (cyprid larvae [3]; [23]): 0%
Swimming (cyprid larvae [3]; [23]): 97.9%
Number of Balanus improvisus/10 cm^2 ([4]; 2 weeks in the sea): 4.63 ± 1.04 /10 cm^2
Number of Balanus improvisus/10 cm^2 ([4]; 4 weeks in the sea): 5.6 ± 1.4 /10 cm^2
Number of Balanus improvisus/10 cm^2 ([4]; 8 weeks in the sea): 148.1 ± 16.24 /10 cm^2
number of acorn barnacles on the test surfaces compared with the control surfaces ([4]; paint with 0.02% by weight medetomidine, 2, 4 and 8 weeks): significant reduction
effect on settling of polychaete larvae ([5]; concentration span of from 0.1 nM to 100 μM): significant inhibiting effect
Dead ([5]; medetomidine 0.1 nM): 2.3%
Settled ([5]; medetomidine 0.1 nM): 9.3%
Swimming ([5]; medetomidine 0.1 nM): 88.4%
Dead ([5]; medetomidine 1 nM): 5.4%
Settled ([5]; medetomidine 1 nM): 5.4%
Swimming ([5]; medetomidine 1 nM): 89.2%
Dead ([5]; medetomidine 10 nM): 4.4%
Settled ([5]; medetomidine 10 nM): 0%
Swimming ([5]; medetomidine 10 nM): 95.6%
Dead ([5]; medetomidine 100 nM): 20%
Settled ([5]; medetomidine 100 nM): 0%
Swimming ([5]; medetomidine 100 nM): 80%
Dead ([5]; medetomidine 1000 nM): 45.7%
Settled ([5]; medetomidine 1000 nM): 0%
Swimming ([5]; medetomidine 1000 nM): 54.3%
Dead ([5]; medetomidine 100 000 nM): 100%
Settled ([5]; medetomidine 100 000 nM): 0%
Swimming ([5]; medetomidine 100 000 nM): 0%
toxic effects on polychaete larvae ([5]; span from 100 nM to 100 μM): toxic effects appear
